{"source": "patent US20110200662A1", "about": "“Method For The Treatment Of Proliferative Disorders Of The Eye” (priority 2008, published 2011)", "key": {"[1]": {"system": "retinal neovascularization", "experiment": "Mouse model of ischemic proliferative retinopathy, intravitreal injection", "protocol": "Intravitreal bizelesin was evaluated in the mouse model of ischemic proliferative retinopathy.\nBizelesin was dissolved in DMSO PharmaSolvent (Gaylord Chemical, Inc.) at 20 microgram/ml and filtered sterilized with a 0.2 micron Milliex-LG Millipore filter. […] The bizelesin solution was stored at −65 C or below. Immediately prior to administration the drug solution was thawed and diluted with sterile phosphate buffered saline (PBS).\nIn brief, for the ischemic proliferative retinopathy model, liters of C57BL/6 mice were exposed to 75% oxygen from P7 to P12 (P=age in days) and then returned to room air. On P12 the mice were anesthetized and given an intravitreal injection of 1 microliter of bizelesin solution or 1 microliter of control diluent. The dose of bizelesin ranged from 0.6 picogram to 0.6 nanograms. On the evening of P16 the mice were given an intravitreal injection of anti-mouse platelet endothelial cell adhesion molecule-1 (PECAM-1) antibody, which stain new blood vessels. On P17, the retinas were isolated, flat mounts prepared, and the area of neovascularization was determined with fluorescent microscopy and computerized image analysis."}, "[2]": {"system": "approximately 60 different human cancer cell lines", "experiment": "NCI DTP Human Tumor Cell Line Screen (colorimetric assay, 48 hours)", "type": "cell-based", "settings": "average value across the cell lines, 48 hours incubation", "method": "FIG. 1 summarizes the screening results obtained with forty different anticancer agents in the National Cancer Institute (NCI) DTP Human Tumor Cell Line Screen in which approximately 60 different human cancer cell lines were incubated for 48 hours with the anticancer drugs. […] For details on the assay, find on the wide world web at dtp.nci.nih.gov/branches/btb/ivclsp. FIG. 1 presents for each drug the average value across the cell lines of the TGI, the LC50, and the ratio of LC50 to TGI.\nIn a preferred embodiment the drug is bizelesin. Bizelesin has a number of unexpected properties that make it highly suited for treating proliferative disorders of the eye. The drug is an ultra-potent irreversible inhibitor of cell proliferation. As few as 1 to approximately 10 bizelesin-DNA crosslinks can inhibit cell proliferation. The small number of drug molecules per cell needed to inhibit clonogenic potential limits collateral damage to cellular processes in nonproliferating cells. […] There is a large difference between the bizelesin concentration that inhibits cell proliferation and the concentration that kills cells. This unexpected property is in sharp contrast to typical anticancer drugs as evidence by the data shown in FIG. 1, which summarizes screening results obtained with forty different anticancer agents in the National Cancer Institute (NCI) DTP Human Tumor Cell Line Screen. […]"}, "[3]": {"settings": "unless given intravascularly; cited from earlier work"}, "[4]": {"system": "approximately 60 different human cancer cell lines", "settings": "average value across the cell lines, 48 hours incubation; cited from earlier work"}, "[5]": {"system": "HCT116 colon cancer cells", "settings": "250 times the GC50 concentration for 4 days; cited from earlier work"}, "cell proliferation": {"system": "cell proliferation", "settings": "cited from earlier work"}, "[6]": {"system": "choroidal neovascularization", "experiment": "Laser induced mouse model of choroidal neovascularization, intravitreal injection", "settings": "for inhibition of neovascularization in the area of the laser burn: single intravitreal dose of 0.6 ng, day 14", "description": "Details of the model are provided in Xie, B. et al., “Blockade of Sphingosine-1-phosphate Reduces Macrophage Influx and Retinal and Choroidal Neovascularization,” J Cell Physiol, 218(1): 192-8 (January 2009 Bizelesin was formulated in PBS as described in Example 1. In brief, 5-6 week old C57BL/6 mice on day 0 were anesthetized and choroidal neovascularization was induced by laser photocoagulation-induced rupture of Bruch's membrane. The mice were then given an intravitreal injection of 1 microliter of control diluent in one eye and in the contralateral fellow eye 1 microliter of solution containing 6 ng to 0.006 ng of Bizelesin. Ten mice were employed per dose level. On day 14 the mice were perfused with fluorescein-labeled dextran, the retinas were isolated, flat mounts prepared, and the area of neovascularization was determined with fluorescent microscopy and computerized image analysis."}, "cellular DNA": {"system": "cellular DNA", "settings": "cited from earlier work"}, "[7]": {"system": "DNA repair response (RPA, γ-H2AX)", "settings": "non-proliferating cells; cited from earlier work"}, "retinal fibrosis": {"system": "retinal fibrosis", "settings": "long-term follow-up; cited from earlier work"}}, "data": [{"molecule": "Cc1c[nH]c2c(O)cc3c(c12)[C@H](CCl)CN3C(=O)c1cc2cc(NC(=O)Nc3ccc4[nH]c(C(=O)N5C[C@@H](CCl)c6c5cc(O)c5[nH]cc(C)c65)cc4c3)ccc2[nH]1", "note": "[bizelesin]", "values": [{"measurement": "clinical evidence of ocular toxicity", "setting": "[1]; intravitreal 0.6 nanogram", "result": "without any clinical evidence of ocular toxicity"}, {"measurement": "average area of neovascularization compared to diluent (p value)", "setting": "[1]; single dose of 0.06 ng", "result": "highly statistically significant"}, {"measurement": "average area of neovascularization compared to diluent (p value)", "setting": "[1]; single dose of 0.6 ng", "result": "highly statistically significant"}, {"measurement": "inhibition of proliferative retinopathy and neovascularization", "setting": "[1]; single intravitreal injection of 0.6 nanogram on P12, read on P17", "result": "nearly complete inhibition"}, {"measurement": "ratio of LC50 to TGI", "setting": "[2]", "result": 480}, {"measurement": "systemic bioavailability", "setting": "[3]", "result": "poor systemic bioavailability"}, {"measurement": "TGI (drug concentration that completely inhibited cell growth)", "setting": "[4]", "result": "picomolar range"}, {"measurement": "apoptosis", "setting": "[5]", "result": "did not cause apoptosis"}, {"measurement": "GI50 (inhibition of cell proliferation)", "setting": "cell proliferation", "result": "picomolar to sub-picomolar range"}, {"measurement": "clinical evidence of ocular toxicity", "setting": "[6]; intravitreal 6 ng to 0.006 ng", "result": "no clinical evidence of ocular toxicity"}, {"measurement": "inhibition of neovascularization in the area of the laser burn", "setting": "[6]", "result": "nearly complete inhibition"}, {"measurement": "inhibition of neovascularization in the area of the laser burn", "setting": "[6]; listed as Bizelesin", "result": "dramatic inhibition"}]}, {"molecule": "N.N.[Cl][Pt][Cl]", "note": "[cisplatin]", "values": [{"measurement": "DNA adducts formed at concentrations that inhibit cell growth by 50%", "setting": "cellular DNA", "result": "approximately 14,000"}]}, {"molecule": "Cc1c[nH]c2c1[C@@]13C[C@@H]1CN(C(=O)c1cc4cc(NC(=O)c5cc6ccccc6o5)ccc4[nH]1)C3=CC2=O", "note": "[adozelesin]", "values": [{"measurement": "GI50 (inhibition of cell proliferation)", "setting": "cell proliferation", "result": "picomolar to sub-picomolar range"}, {"measurement": "DNA repair response", "setting": "[7]", "result": "does not trigger A DNA repair response"}]}, {"molecule": "ranibizumab (antibody, chains of the INN, looked up, V domains shown) VH: EVQLVESGGGLVQPGGSLRLSCAASGYDFTHYGMNWVRQAPGKGLEWVGWINTYTGEPTYAADFKRRFTFSLDTSKSTAYLQMNSLRAEDTAVYYCAKYPYYYGTSHWYFDVWGQGTLVTVSS VL: DIQLTQSPSSLSASVGDRVTITCSASQDISNYLNWYQQKPGKAPKVLIYFTSSLHSGVPSRFSGSGSGTDFTLTISSLQPEDFATYYCQQYSTVPWTFGQGTKVEIK", "values": [{"measurement": "patients who developed retinal fibrosis", "setting": "retinal fibrosis", "result": 50, "unit": "%"}]}]}
